Experiments:
[1] = tested on: infant foreskin fibroblasts; assay: Collagen production by fibroblasts (modified Peterofsky-Diegelman assay); format: cell-based, human; conditions: [3H]proline incorporation into collagenase-sensitive protein
[2] = tested on: infant foreskin fibroblasts; assay: Fibroblast proliferation, [3H]thymidine incorporation; format: cell-based; conditions: [3H]thymidine pulse after 72 h, harvest 24 h later; positive control human recombinant TGF-β1 (25 ng/ml)
Procedure: The peptides of the invention were also found to induce fibroblast proliferation in vitro. Fibroblast proliferation was measured in low passaged (fewer than 8) fibroblast cultures. Fibroblasts were added at low density (20,000 cells/well) to Falcon 3047 multiwell plates in maintenance medium. After incubation at 37° C. in a humidified atmosphere containing 5% CO2 for 16 h, the medium was removed from each well and replaced with 450 μl serum-free maintenance medium containing 0.1% BSA and 50 μl aliquots of sterilized test sample. Each sample being tested for mitogenic activity was added to triplicate wells. […] After 15 min. of repeated agitation of each multi-well plate, a 250 μl aliquot from each well was transferred to scintillation vials containing Bio-Safe II (Research Products International Corp., Mt. Prospect, Ill.), cooled for 4 h, and counted in a scintillation counter. Fibroblast proliferation was expressed as "Mean CPM±SEM" per well of the replicates. […]
Fibroblast proliferation experiments in response to the 7-mer peptides (peptides 368-374) were carried out as generally described above. […] All cultures were performed in triplicate and results were expressed as the means of triplicate values as counts per minute (CPM) per well. […]

VYYVGRK [Peptide 368-374, 7-mer corresponding to amino acids 368-374 of TGF-β1]
collagen production by fibroblasts (in words) [1]: being the most potent
collagen production by fibroblasts (in words) ([1]; listed as VYYVGRKK): stimulated collagen production to some degree
fibroblast proliferation / growth (in words) [2]: most effective in inducing fibroblast growth, exceeding that obtained with human recombinant TGF-β1

From US5824647A, “Chemotactic wound healing peptides” (priority 1995, dated 1998)
